In general, GI50 refers to the concentration that inhibits growth by half.

Where “and” joins values, the source holds several entries; their conditions need not be identical. Identical values can stand only once.

The subject of series [1] is 5838 Ewing sarcoma cells (EWS-ERG). The experiment in a line: 72 h GI50 assay in 5838.
Series [2] relates to DMS 114 cells. The experiment in a line: 72 h GI50 assay in DMS 114. As to conditions: read-out: DMS 114 GI50; 72 h growth inhibition.
The test system of series [3] is PANC-1 cells. Put plainly: 72 h GI50 assay in PANC-1. The note with it: read-out: PANC-1 GI50; 72 h growth inhibition.
For series [4], the system named is HCT 116 cells. The experiment in a line: 72 h GI50 assay in HCT 116. As to conditions: read-out: HCT 116 GI50; 72 h growth inhibition.
The test system of series [5] is A549 cells. The experiment in a line: 72 h GI50 assay in A549. As to conditions: read-out: A549 GI50; 72 h growth inhibition.
In series [6] the test system is HeLa cells. Put plainly: 72 h GI50 assay in HeLa. The note with it: read-out: HeLa GI50; 72 h growth inhibition.
The subject of series [7] is ES-7 Ewing sarcoma cells (EWS-FLI1 Type 4). The experiment in a line: 72 h GI50 assay in ES-7. The note with it: read-out: ES-7 EWS-FLI1 Type 4 GI50; 72 h growth inhibition.
Series [8] has as its system A-673 Ewing sarcoma cells (EWS-FLI1 Type 1). Put plainly: 72 h GI50 assay in A-673. As to conditions: read-out: A-673 EWS-FLI1 Type 1 GI50; 72 h growth inhibition.
The test system of series [9] is Ewing sarcoma cell lines (TC-32, 5838, RD-ES, TC-71, A-673, ES-2, ES-7, ES-8). Put plainly: Median GI50 in panel of Ewing sarcoma cell lines.
Series [10] concerns prostate cell lines lacking TMPRSS2-ERG. The experiment in a line: Median GI50 in prostate cell lines lacking TMPRSS2-ERG. As to conditions: read-out: Median GI50 in prostate cell lines, lacking TMPRSS2-ERG; unit inferred.
The subject of series [11] is LNCaP cells. The experiment in a line: 72 h GI50 assay in LNCaP. As to conditions: read-out: LNCaP GI50; 72 h growth inhibition.
Series [12] relates to RD-ES Ewing sarcoma cells (EWS-FLI1 Type 2). Put plainly: 72 h GI50 assay in RD-ES. As to conditions: read-out: RD-ES EWS-FLI1 Type 2 GI50; 72 h growth inhibition.
Series [13] concerns ES-8 Ewing sarcoma cells (EWS-FLI1 Type 2). Put plainly: 72 h GI50 assay in ES-8. The note with it: read-out: ES-8 EWS-FLI1 Type 2 GI50; 72 h growth inhibition.
For series [14], the system named is TC-71 Ewing sarcoma cells (EWS-FLI1 Type 1). As to conditions: 72 h growth inhibition.
Series [15] has as its system TC-32 (Ewing sarcoma, EWS-FLI1 Type 1) cell line.
The test system of series [16] is VCaP prostate cancer cells (TMPRSS2-ERG). Put plainly: 72 h GI50 assay in VCaP.
Series [17] concerns ES-2 Ewing sarcoma cells (EWS-FLI1 Type 3). Put plainly: 72 h GI50 assay in ES-2. As to conditions: read-out: ES-2 EWS-FLI1 Type 3 GI50; 72 h growth inhibition.
Series [18] relates to DU 145 cells. The experiment in a line: 72 h GI50 assay in DU 145. As to conditions: read-out: DU 145 GI50; 72 h growth inhibition.
Series [19] concerns PC-3 (prostate cancer, no ETS translocation) cell line. The experiment in a line: 72 h growth inhibition (GI50) assay in PC-3. As to conditions: read-out: PC-3 Prostate cancer No ETS Translocation GI50; 72 h growth inhibition, PC-3 cells.

As for `COC(=O)C(Cc1c[nH]c2ccccc12)NC(=O)C(OC)C1Cc2cc3cc(OC4CC(OC5CC(O)C(O)C(C)O5)C(O)C(C)O4)c(C)c(O)c3c(O)c2C(=O)C1OC1CC(OC2CC(OC3CC(C)(O)C(O)C(C)O3)C(O)C(C)O2)C(O)C(C)O1` (stereo not drawn) [MTMSA-Trp (3), Mithramycin SA-Tryptophan, reference compound], the GI50 in series [1] (read-out: 5838 Ewing Sarcoma EWS-ERG GI50, 72 h growth inhibition, 5838 cells) came to 0.006 µM; in series [2] it was 0.151 µM; in [3], 0.161 µM; in [4], 0.03 µM; in series [5] it was 0.089 µM; in series [6], 0.323 µM. Moreover, the GI50 was found to be 0.032 µM in series [7]; 0.081 µM in series [8]; 0.047 µM in series [9] (read-out: Median GI50 in Ewing sarcoma cell lines, median over 8 Ewing sarcoma cell lines, 72 h); 76 nM in [10]; 0.109 µM in [11]; 0.047 µM in series [12]. Further, the GI50 in series [13] turned out to be 0.099 µM; in [16] (read-out: VCaP Prostate Cancer TMPRSS2-ERG GI50, 72 h growth inhibition, VCaP cells), 0.06 µM; in [17] it was 0.133 µM; in series [18] it was 0.046 µM; in [19] it was 0.076 µM. For the same compound, the “Ratio of median GI50 Non-Ewing sarcoma cell lines (cf Table 3):5838” value in series [1] (selectivity for 5838 cells) is reported as 18.2. For the same compound, the “Ratio of Median GI50 non-Ewing sarcoma:Ewing sarcoma (Selectivity Index)” value in series [9] (median GI50 non-Ewing panel over Ewing panel) was 2.3 and 1.5. Moreover, in series [9] (selectivity index relative to MTM (1)), the “Selectivity Index ratio Analogues:MTM (1)” value amounted to 1.5. Besides, in series [14], the “TC-71 EWS-FLI1 Type 1 GI50” value was 0.057 µM. Besides, the “TC-32 Ewing sarcoma EWS-FLI1 Type 1 GI50” value in series [15] (72 h growth inhibition, TC-32 cells) worked out at 0.016 µM. The “GI50 ratio PC-3:TC-32” value in series [15] (selectivity, GI50 in PC-3 over GI50 in TC-32) was 4.8. In addition, in series [16] (selectivity for VCaP over other prostate cancer cell lines), the “Ratio of median GI50 Prostate cells lacking TMPRSS2-ERG:VCaP” value is on record as 1.3.

The values above are taken from US11224609B2, “Mithramycin derivatives having increased selectivity and anti-cancer activity” (University of Kentucky Research Foundation, priority 2017, dated 2022).
